Experimental data taken from US20190298717A1 (BOARD OF REGENTS, THE UNIVERSITY OF TEXAS SYSTEM, priority 2016, published 2019).
Where two headings read alike, the source gives them in different places.

How the values were obtained:
C. elegans = tested on: C. elegans
Experimental: C. elegans strains and maintenance. Animals were grown and maintained using standard C. elegans conditions at 20° C. on NGM plates and were fed E. coli strain HB101. N2 worms were used as wild-type and the following mutants and transgenic strains were used from Caenorhabditis Genetics Center (CGC, University of Minnesota): EU1 skn-1(zu67) (IV)/nT1[unc-?(n754); let-?], EU31 skn-1(zu135))/nT1[unc-?(n754); let-?], CL2166 dvIs19 [gst-4p::GFP::NLS], CL691 dvIs19 [gst-4p::GFP::NLS], skn-1(zu67)/nT [unc-?(n754) let-?], LG333 skn-1(zu135)/nT1[qIs51]; ldIs7[skn-1b/c::GFP], LG348 skn-1(zu135)/nT1[qIs51]; geIs9 [gpa-4p::skn-1b::GFP+rol-6(su1006)], LG357 skn-1(zu135)/nT1[qIs51]; geIs10 [ges-1p(long)::skn-1c::GFP+rol-6(su1006)], and LD1 ldIs7 [skn-1b/c::GFP+rol-6(su1006)].
Lifespan analysis. All lifespan assays were performed at 20° C. according to standard protocols described elsewhere. […] Worms were transferred to fresh plates every day after reaching adulthood, and every two days after reaching 10 days of age. Prodding test as described above was used to count the number of dead worms. Survival curve was plotted using Prism 7 and the significance of the curves calculated by Log-rank (Mantel-Cox) test.
RNA Interference. Synchronized L1 larvae were placed on NGM plates containing 1 mM IPTG and fed HT115 bacterial strain containing scramble or skn-1 RNAi plasmids. All the experiments were done at 20° C.

[1] = tested on: glutathione S-transferase-4 (GST-4)
Experimental: The inventors measured the expression of glutathione S-transferase-4 (GST-4), a downstream target of SKN-1, in a transgenic strain (CL2166) expressing GFP driven by the GST-4 promoter (Kahn et al., 2008).
Imaging. To measure the GFP intensity, synchronized populations of worms were anesthetized and arranged on agarose pad. The intestinal SKN-1::GFP was assayed by confocal microscopy (X40) (Nikon A1R, Nikon Instruments Inc., Melville, N.Y., USA) (FIG. 5A). The quantification of intestinal SKN-1::GFP was performed with ImageJ (FIG. 5B). The ASI SKN-1::GFP was assayed by a Zeiss Axiolmager M2 microscope equipped with a Hamamatsu Flash 4.0 Scientific c-mos camera and Zen2 software (X40) (FIG. 5D). The quantification of ASI SKN-1::GFP was performed with ImageJ using a sliding paraboloid algorithm for reducing the background followed by edge detection. The t-test was conducted with Welsh correction since the standard deviations were not equal (FIG. 5E). The GSTp::GFP intensity was measured same as ASI SKN-1::GFP but with ×5 magnification. The GSTp::GFP quantification was done using the whole worm signal following the same protocol as intestinal SKN-1::GFP (FIG. 5G).

SH-SY5Y cells [2] = tested on: SH-SY5Y cells
Experimental: Viability of the cells was measured by Cell Titer Glo after 24 and 48 hours of treatments. […] Values are presented as mean±SDE (*p<0.05, **p<0.01).
SH-SY5Y neuroblastoma cells were treated with doxorubicin (0.2 μM), a cytotoxic compound that depletes the NAD pool of the cells and changes morphological features that mimic neurodegeneration such as loss of neuritis (8, 9).

SH-SY5Y cells [3] = experiment: Mitochondrial membrane potential (TMRE); assay type: cell-based, human; settings: hydralazine 0, 10, 20 μM; isoniazid 20 μM
Experimental: Cells were stained by TMRE to tag active mitochondria. Florescence signal was quantified by Flow Jo software. […] ATP levels were measured by bioluminescent detection of luciferase activity. All data are presented normalized to cell number.
The mitochondrial membrane potential was measured as an indicator of cellular energetics and ATP content.

[4] = tested on: Nrf2 transcriptional activity (ARE)
Experimental: Trx1 reduces the cysteine residues critical for binding of Nrf2 to AREs (Hansen et al., 2004).
Nrf2 Transcriptional Activity Assay. The transcriptional activity of Nrf2 was determined using a luciferase-based transcription activation approach. A vector carrying a […] controlled luciferase gene (firefly luciferase) and a vector carrying the control luciferase (Renilla luciferase) from an ARE reporter kit (BPS Bioscience, San Diego, Calif.) was transiently co-transfected into the cells using Lipofectamine reagents (Thermo Fisher, Waltham, Mass.). […] Briefly, the cells were incubated with firefly luciferase substrate for 10 minutes prior to measurement luminescence in a 96-well luminescence plate reader. Subsequently, the Renilla luciferase was measured after the addition of Dual-Glo Stop & Glo reagent into the wells with a 10-minute incubation. The ratio of luminescence from firefly and Renilla was calculated to normalize and compare the Nrf2 transcriptional activity.

[5] = tested on: primary cortical neuronal cells; settings: 0.1, 1, 10 μM, 1 μM rotenone, 24 hours
Experimental: (§1) The inventors first measured the cell proliferation to evaluate the stress caused by expression of tau fibrils in aggregate-positive and negative cells (FIG. 6A). […] The inventors also measured the concentration of superoxide ions (O2-), a detrimental byproduct of oxidative phosphorylation, as an ROS representative. […] The inventors next measured expression of Nrf2 and HO-1 in the same cells (FIG. 6C). […] Aggregate-positive and -negative KD cells were treated with 200 μM H2O2 for 24 h. Cytotoxicity was measured as release of LDH.
(§2) Cell Viability and Cytotoxicity Assay. Cell growth was analyzed using the MTT cell viability assay. Briefly, at the end of incubation/treatment, MTT reagent was diluted in culture medium and aliquoted into each well. After incubation for 2 hours, the medium was aspirated and DMSO was aliquoted into each well to disrupt the cells and dissolve the intracellular MTT dyes. Absorbance was read at 570 nm wavelength in a 96-well plate reader. Cell toxicity was detected using a LDH cell toxicity assay kit (Promega, Fitchburg Wis.). This is a coupled enzymatic assay that detects a visible color signal initially described by Nachlas et. al. The reagent contained excess concentrations of lactate and NAD+as substrates to drive the LDH reaction and produce NADH. In the presence of diaphorase, NADH drives the enzyme-catalyzed conversion of iodonitro-tetrazolium violet to a red formazan product. Briefly, DMEM medium was withdrawn from each well of the plate after treatment and briefly centrifuged to get rid of floating cells or cell debris. Then, the medium supernatant was mixed with equal volume of substrate/enzyme mixture included in the kit (lactate, NAD+, diaphorase and iodonitro-tetrazolium violet), followed by incubation at room temperature for 15 minutes before the addition of acetic acid to cease the reaction. The absorbance was read at 490 nm in a 96-well plate reader. […] Cell viability assay was performed using CellTiter-Glo assay.

[6] = tested on: HEK293 cells overexpressing tau residues 244 to 372, with mutations of P301L and V337M
Experimental: as §1, §2

Experimental for primary cortical neurons: For each group (control, 0.5 μM Hyd, 1 μM Hyd, 2 μM Hyd and 2 μM Dimebon) 10 images from three replicates were analyzed. Total numbers of spines, stubby, thin, and mushroom were counted by NeuronStudio software for each image. The mean value and standard deviation of numbers for each group were calculated. P value was calculated with non-parametric T-test. All values are mean±SD (*p<0.05, **p<0.01).
Primary neuronal cells from cortex were visualized with td-Tomato (FIG. 21A). Cells were treated with 500 nM Aβ-42 oligomers or vehicle (Ctrl). Spine density and morphology were measured per 10 micron by confocal imaging. […] Mushroom and thins are indicated with an arrow. […] Dimebon, a known neuroprotective compound, was used as positive control in all experiments. Data were collected from three batches of cultures for all treatments and Ctrl. For spine quantification n=8-10 (for each treatment per one experiment) neurons were analyzed by Neuronstudio. Scale bar corresponds to 5 μm. Experiment was repeated three times. Values are shown as mean±SEM. (*p<0.05, **p<0.01, ***p<0.001, ****p<0.0001).
Primary neuronal cells were isolated from the cortex of mice pups on day 0 (P0) and cultured in 24 well plates covered by poly-D-lysine coated coverslips with a density of 1.0×105 for 7 days. Cells were then transfected with tdTomato plasmid and incubated for 14 additional days (4). […] Dimebon (2 μM) was used as a positive control. After 24 hours of treatment, cells were fixed and scanned with a Zeiss microscope at 100× resolution for visualizing spines on the dendrites. The images were analyzed using Neuronstudio software (5). […] Structural formation and the maturation of spines were also analyzed.

NNc1nncc2ccccc12 [Hydralazine]
Variation Compared to Control (%) (C. elegans; EU1 skn-1(zu67), 100 μM Hyd (printed 100 IJM), FIG. 7G): +11.7% | Variation Compared to Control (%) (C. elegans; EU31 skn-1(zu135), 100 μM Hyd (printed 100 IlM), FIG. 7G): +3.3% | Variation Compared to Control (%) (C. elegans; LG348 (geIs9, skn-1b), 100 μM Hyd (printed 100 IJM), FIG. 7H): +10.8% | Variation Compared to Control (%) (C. elegans; LG357 (geIs10, skn-1c), 100 μM Hyd (printed 100 FM), FIG. 7H): +2.7% | Variation Compared to Control (%) (C. elegans; N2, 10 μM Hyd (printed 10 IJM), FIG. 7E): +4.82% | lifespan extension (C. elegans; N2, 100 μM): ≤ 25% | Variation Compared to Control (%) (C. elegans; N2, 100 μM Hyd (printed 100IJM), FIG. 7E): +24.4% | Variation Compared to Control (%) (C. elegans; N2, 200 μM Hyd (printed 200 IlM), FIG. 7E): +13.3% | Variation Compared to Control (%) (C. elegans; N2-Scramble RNAi, 100 μM (printed 100 IJM), FIG. 7F): +22.2% | Variation Compared to Control (%) (C. elegans; N2-skn-1 RNAi, 100 μM, FIG. 7F): −5.4% | pro-longevity effect in skn-1(zu135) mutant and skn-1 knockdown worms (C. elegans; in vivo): completely lost | extension of medium and maximum lifespan (C. elegans; worms treated with hydralazine): at least 25% | GST-4p::GFP signal in worms fed skn-1(RNAi) or skn-1(zu67) ([1]; 100 μM, 72 h): did not increase GFP signal | GST-4p::GFP signal ([1]; strain CL2166, 48 h after treatment): significant increase in the GFP signal | spine density after Aβ-42 oligomers (primary cortical neurons; 1 μM, 500 nM Aβ-42, 24 hours): restoration of spine density | numbers of spines in a 10 micron length of dendrite (primary cortical neurons; 0.5, 1.0, 2.0 μM, 24 hours): significantly increased | stubby formation and mushroom spines (primary cortical neurons; 0.5, 1.0, 2.0 μM, 24 hours): increased the stubby formation and numbers of matured spines | increase of NAD level of untreated cell (SH-SY5Y cells [2]; 48 hours): 50% | NAD level in doxorubicin treated cells (SH-SY5Y cells [2]; doxorubicin 0.2 μM): significant effect on restoring NAD level | protection against doxorubicin induced cell death (SH-SY5Y cells [2]; doxorubicin 0.2 μM, 0, 10, 20 μM, 24 and 48 hours): protects cells in a dose-dependent manner | mitochondrial membrane potential / mitochondrial function (TMRE) (SH-SY5Y cells [3]): improves mitochondrial function in a dose dependent manner | ARE binding elevation ([4]; SH-SY5Y): 2 fold | luciferase activity compared to untreated cells ([4]; SH-SY5Y with ARE-luciferase reporter, 24 h, both concentrations): 2.0±0.2 folds | viability of primary neuronal cells under rotenone [5]: rescues primary neuronal cells from rotenone toxicity in a dose-dependent manner | cell viability under rotenone ([6]; 20 μM, 1 μM rotenone, 24 h): protects both aggregate-positive and negative cells | cell viability in Nrf2 KD cell line ([6]; Nrf2 knockdown tau cells): did not improve cell viability | cell growth of aggregate-positive cells ([6]; tau aggregate-positive HEK293): improved
